Test results taken from patent US20260022142A1, “MACROCYCLIC IMMUNOMODULATORS” (Bristol-Myers Squibb Company, priority 2022, published 2026).
Bridge positions count the residues as written; N and C are the ends. Square brackets hold non-standard residues; d marks the D form. Peptide text beside a SMILES is read from it. * marks the point of attachment. ξ: configuration not given here. Bip = N[C@@H](Cc1ccc(-c2ccccc2)cc1)C(=O)O; Tyr(3-F) = N[C@@H](Cc1ccc(O)c(F)c1)C(=O)O; Tyr(3-Me) = Cc1cc(C[C@H](N)C(=O)O)ccc1O; Phe(3-Me) = Cc1cccc(C[C@H](N)C(=O)O)c1; Cha = N[C@@H](CC1CCCCC1)C(=O)O; hSer = N[C@@H](CCO)C(=O)O; Carboxymethyl = O=C(O)C*; Orn = NCCC[C@H](N)C(=O)O; Aun = NCCCCCCCCCCC(=O)O; Dab = NCC[C@H](N)C(=O)O; Dap = NC[C@H](N)C(=O)O; ξS = NC(CO)C(=O)O

Biological target: T1, PD-1/PD-L1 interaction (PE-labeled human PD-L1-Ig binding to Jurkat cell line over-expressing human PD-1) (Homo sapiens, UniProt Q15116)
T1 construct: expressed in transfected cells; host or cells: Jurkat
Assay: Jurkat-PD-1 Cell Binding High-Content Screening Assay (CBA)
Format: cell-based
Conditions: Jurkat cell line over-expressing human PD-1; PE-labeled PD-L1-Ig 20 nM final; read-out: Jurkat hPD1-PDL1 IC50
How it was run: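 Binding of fluorescent PD-L1-Ig (20 nM final) to Jurkat-PD-1 cells was measured by automated imaging after 1 h, following a 2 h compound pre-treatment at 37° C.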

T1 sequence (Q15116 25-288): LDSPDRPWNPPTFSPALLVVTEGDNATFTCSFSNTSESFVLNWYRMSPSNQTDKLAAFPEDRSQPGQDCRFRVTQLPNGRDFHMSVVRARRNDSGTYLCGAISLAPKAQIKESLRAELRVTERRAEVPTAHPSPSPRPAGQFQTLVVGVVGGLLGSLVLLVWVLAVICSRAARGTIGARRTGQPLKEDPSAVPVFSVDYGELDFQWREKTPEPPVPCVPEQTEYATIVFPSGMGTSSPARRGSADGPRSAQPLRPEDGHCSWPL

Structure (SMILES)	IC50
Cc1cc(C[C@@H]2NC(=O)[C@H](CC(=O)O)NC(=O)[C@H](Cc3ccc(OCC(=O)O)cc3)NC(=O)[C@H](CN)NC(=O)CSC[C@@H](C(=O)N[C@@H](CCN)C(=O)NCCCCCCCCCCC(=O)O)NC(=O)[C@H](CCO)NC(=O)[C@H](C(C)C)NC(=O)[C@H](CC3CCCCC3)NC(=O)[C@H](CCN)NC(=O)[C@@H](CC(C)C)NC(=O)[C@H](CCCN)NC(=O)[C@H](Cc3ccc(OCC(=O)O)cc3)NC(=O)[C@H](Cc3ccc(-c4ccccc4)cc3)NC(=O)[C@H](C(C)C)NC2=O)ccc1O [Compound 2096] ({CH2CO}-[Dap]Y(Carboxymethyl)D[Tyr(3-Me)]V[Bip]Y(Carboxymethyl)[Orn][dL][Dab][Cha]V[hSer]C[Dab][Aun]-OH; thioether N-14)	36.5 nM
Cc1cccc(C[C@@H]2NC(=O)[C@H](CC(=O)O)NC(=O)[C@H](Cc3ccc(OCC(=O)O)cc3)NC(=O)[C@H](CN)NC(=O)CSC[C@@H](C(=O)N[C@@H](CCN)C(=O)NCCCCCCCCCCC(=O)O)NC(=O)[C@@H](CO)NC(=O)[C@H](C(C)C)NC(=O)[C@H](CC3CCCCC3)NC(=O)[C@H](CCN)NC(=O)[C@@H](CC(C)C)NC(=O)[C@H](CCCN)NC(=O)[C@H](Cc3ccc(OCC(=O)O)cc3)NC(=O)[C@H](Cc3ccc(-c4ccccc4)cc3)NC(=O)[C@H](C(C)C)NC2=O)c1 [Compound 2097] ({CH2CO}-[Dap]Y(Carboxymethyl)D[Phe(3-Me)]V[Bip]Y(Carboxymethyl)[Orn][dL][Dab][Cha]V[dS]C[Dab][Aun]-OH; thioether N-14)	38.8 nM
Cc1cccc(C[C@@H]2NC(=O)[C@H](CC(=O)O)NC(=O)[C@H](Cc3ccc(OCC(=O)O)cc3)NC(=O)[C@H](CN)NC(=O)CSC[C@@H](C(=O)N[C@@H](CCN)C(=O)NCCCCCCCCCCC(=O)O)NC(=O)[C@H](CCO)NC(=O)[C@H](C(C)C)NC(=O)[C@H](CC3CCCCC3)NC(=O)[C@H](CCN)NC(=O)[C@@H](CC(C)C)NC(=O)[C@H](CCCN)NC(=O)[C@H](Cc3ccc(OCC(=O)O)cc3)NC(=O)[C@H](Cc3ccc(-c4ccccc4)cc3)NC(=O)[C@H](Cc3ccc(OCC(=O)O)cc3)NC2=O)c1 [Compound 2101] ({CH2CO}-[Dap]Y(Carboxymethyl)D[Phe(3-Me)]Y(Carboxymethyl)[Bip]Y(Carboxymethyl)[Orn][dL][Dab][Cha]V[hSer]C[Dab][Aun]-OH; thioether N-14)	16.2 nM
Cc1cccc(C[C@@H]2NC(=O)[C@H](CC(=O)O)NC(=O)[C@H](Cc3ccc(OCC(=O)O)cc3)NC(=O)[C@H](CN)NC(=O)CSC[C@@H](C(=O)N[C@@H](CCN)C(=O)NCCCCCCCCCCC(=O)O)NC(=O)[C@H](CCO)NC(=O)[C@H](C(C)C)NC(=O)[C@H](CC3CCCCC3)NC(=O)[C@H](CCN)NC(=O)[C@@H](CC(C)C)NC(=O)[C@H](CCCN)NC(=O)[C@H](Cc3ccc(O)cc3)NC(=O)[C@H](Cc3ccc(-c4ccccc4)cc3)NC(=O)[C@H](Cc3ccc(OCC(=O)O)cc3)NC2=O)c1 [Compound 2102] ({CH2CO}-[Dap]Y(Carboxymethyl)D[Phe(3-Me)]Y(Carboxymethyl)[Bip]Y[Orn][dL][Dab][Cha]V[hSer]C[Dab][Aun]-OH; thioether N-14)	29.1 nM
CC(C)C[C@H]1NC(=O)[C@H](CCCN)NC(=O)[C@H](Cc2ccc(O)cc2)NC(=O)[C@H](Cc2ccc(-c3ccccc3)cc2)NC(=O)[C@H](Cc2ccc(O)cc2)NC(=O)[C@H](Cc2ccc(O)c(F)c2)NC(=O)[C@H](CC(=O)O)NC(=O)[C@H](Cc2ccc(OCC(=O)O)cc2)NC(=O)[C@H](CCCNC(=N)N)NC(=O)CSC[C@@H](C(=O)N[C@@H](CCN)C(=O)NCCCCCCCCCCC(=O)O)NC(=O)[C@H]([C@@H](C)O)NC(=O)[C@H](C(C)C)NC(=O)[C@H](CC2CCCCC2)NC(=O)[C@H](CCN)NC1=O [Compound 2103] ({CH2CO}-RY(Carboxymethyl)D[Tyr(3-F)]Y[Bip]Y[Orn][dL][Dab][Cha]VTC[Dab][Aun]-OH; thioether N-14)	69.9 nM
Cc1cc(C[C@@H]2NC(=O)[C@H](CC(=O)O)NC(=O)[C@H](Cc3ccc(OCC(=O)O)cc3)NC(=O)[C@H](CCCNC(=N)N)NC(=O)CSC[C@@H](C(=O)N[C@@H](CCN)C(=O)NCCCCCCCCCCC(=O)O)NC(=O)[C@H]([C@@H](C)O)NC(=O)[C@H](C(C)C)NC(=O)[C@H](CC3CCCCC3)NC(=O)[C@H](CCN)NC(=O)[C@@H](CC(C)C)NC(=O)[C@H](CCCN)NC(=O)[C@H](Cc3ccc(OCC(=O)O)cc3)NC(=O)[C@H](Cc3ccc(-c4ccccc4)cc3)NC(=O)[C@H](Cc3ccc(O)cc3)NC2=O)ccc1O [Compound 2106] ({CH2CO}-RY(Carboxymethyl)D[Tyr(3-Me)]Y[Bip]Y(Carboxymethyl)[Orn][dL][Dab][Cha]VTC[Dab][Aun]-OH; thioether N-14)	15.9 nM
CC(C)C[C@H]1NC(=O)[C@H](CCCN)NC(=O)[C@H](Cc2ccc(OCC(=O)O)cc2)NC(=O)[C@H](Cc2ccc(-c3ccccc3)cc2)NC(=O)[C@H](Cc2ccc(O)cc2)NC(=O)[C@H](Cc2ccc(O)c(F)c2)NC(=O)[C@H](CC(=O)O)NC(=O)[C@H](Cc2ccc(OCC(=O)O)cc2)NC(=O)[C@H](CN)NC(=O)CSC[C@@H](C(=O)N[C@@H](CCN)C(=O)NCCCCCCCCCCC(=O)O)NC(=O)[C@H]([C@@H](C)O)NC(=O)[C@H](C(C)C)NC(=O)[C@H](CC2CCCCC2)NC(=O)[C@H](CCN)NC1=O [Compound 2107] ({CH2CO}-[Dap]Y(Carboxymethyl)D[Tyr(3-F)]Y[Bip]Y(Carboxymethyl)[Orn][dL][Dab][Cha]VTC[Dab][Aun]-OH; thioether N-14)	116 nM

More lines, in order of falling IC50, values ahead:

IC50	Structure (SMILES)
113 nM	CC(C)C[C@H]1NC(=O)[C@H](CCCN)NC(=O)[C@H](Cc2ccc(OCC(=O)O)cc2)NC(=O)[C@H](Cc2ccc(-c3ccccc3)cc2)NC(=O)[C@H](Cc2ccc(O)cc2)NC(=O)[C@H](Cc2ccc(O)c(F)c2)NC(=O)[C@H](CC(=O)O)NC(=O)[C@H](Cc2ccc(OCC(=O)O)cc2)NC(=O)[C@H](CCCNC(=N)N)NC(=O)CSC[C@@H](C(=O)N[C@@H](CCN)C(=O)NCCCCCCCCCCC(=O)O)NC(=O)[C@H]([C@@H](C)O)NC(=O)[C@H](C(C)C)NC(=O)[C@H](CC2CCCCC2)NC(=O)[C@H](CCN)NC1=O [Compound 2105] ({CH2CO}-RY(Carboxymethyl)D[Tyr(3-F)]Y[Bip]Y(Carboxymethyl)[Orn][dL][Dab][Cha]VTC[Dab][Aun]-OH; thioether N-14)
53.4 nM	Cc1cccc(C[C@@H]2NC(=O)[C@H](CC(=O)O)NC(=O)[C@H](Cc3ccc(OCC(=O)O)cc3)NC(=O)[C@H](CN)NC(=O)CSC[C@@H](C(=O)N[C@@H](CCN)C(=O)NCCCCCCCCCCC(=O)O)NC(=O)C(CO)NC(=O)[C@H](C(C)C)NC(=O)[C@H](CC3CCCCC3)NC(=O)[C@H](CCN)NC(=O)[C@@H](CC(C)C)NC(=O)[C@H](CCCN)NC(=O)[C@H](Cc3ccc(O)cc3)NC(=O)[C@H](Cc3ccc(-c4ccccc4)cc3)NC(=O)[C@H](C(C)C)NC2=O)c1 (stereo partly drawn) [Compound 2098] ({CH2CO}-[Dap]Y(Carboxymethyl)D[Phe(3-Me)]V[Bip]Y[Orn][dL][Dab][Cha]V[ξS]C[Dab][Aun]-OH; thioether N-14)
22.3 nM	Cc1cc(C[C@@H]2NC(=O)[C@H](CC(=O)O)NC(=O)[C@H](Cc3ccc(OCC(=O)O)cc3)NC(=O)[C@H](CCCNC(=N)N)NC(=O)CSC[C@@H](C(=O)N[C@@H](CCN)C(=O)NCCCCCCCCCCC(=O)O)NC(=O)[C@H]([C@@H](C)O)NC(=O)[C@H](C(C)C)NC(=O)[C@H](CC3CCCCC3)NC(=O)[C@H](CCN)NC(=O)[C@@H](CC(C)C)NC(=O)[C@H](CCCN)NC(=O)[C@H](Cc3ccc(O)cc3)NC(=O)[C@H](Cc3ccc(-c4ccccc4)cc3)NC(=O)[C@H](Cc3ccc(O)cc3)NC2=O)ccc1O [Compound 2104] ({CH2CO}-RY(Carboxymethyl)D[Tyr(3-Me)]Y[Bip]Y[Orn][dL][Dab][Cha]VTC[Dab][Aun]-OH; thioether N-14)
18 nM	Cc1cccc(C[C@@H]2NC(=O)[C@H](CC(=O)O)NC(=O)[C@H](Cc3ccc(OCC(=O)O)cc3)NC(=O)[C@H](CN)NC(=O)CSC[C@@H](C(=O)N[C@@H](CCN)C(=O)NCCCCCCCCCCC(=O)O)NC(=O)[C@H](CCO)NC(=O)[C@H](C(C)C)NC(=O)[C@H](CC3CCCCC3)NC(=O)[C@H](CCN)NC(=O)[C@@H](CC(C)C)NC(=O)[C@H](CCCN)NC(=O)[C@H](Cc3ccc(OCC(=O)O)cc3)NC(=O)[C@H](Cc3ccc(-c4ccccc4)cc3)NC(=O)[C@H](C(C)C)NC2=O)c1 [Compound 2099] ({CH2CO}-[Dap]Y(Carboxymethyl)D[Phe(3-Me)]V[Bip]Y(Carboxymethyl)[Orn][dL][Dab][Cha]V[hSer]C[Dab][Aun]-OH; thioether N-14)
13.9 nM	Cc1cccc(C[C@@H]2NC(=O)[C@H](CC(=O)O)NC(=O)[C@H](Cc3ccc(OCC(=O)O)cc3)NC(=O)[C@H](CN)NC(=O)CSC[C@@H](C(=O)N[C@@H](CCN)C(=O)NCCCCCCCCCCC(=O)O)NC(=O)[C@H](CCO)NC(=O)[C@H](C(C)C)NC(=O)[C@H](CC3CCCCC3)NC(=O)[C@H](CCN)NC(=O)[C@@H](CC(C)C)NC(=O)[C@H](CCCN)NC(=O)[C@H](Cc3ccc(OCC(=O)O)cc3)NC(=O)[C@H](Cc3ccc(-c4ccccc4)cc3)NC(=O)[C@H](Cc3ccc(O)cc3)NC2=O)c1 [Compound 2100] ({CH2CO}-[Dap]Y(Carboxymethyl)D[Phe(3-Me)]Y[Bip]Y(Carboxymethyl)[Orn][dL][Dab][Cha]V[hSer]C[Dab][Aun]-OH; thioether N-14)
9.5 nM	Cc1cccc(C[C@@H]2NC(=O)[C@H](CC(=O)O)NC(=O)[C@H](Cc3ccc(OCC(=O)O)cc3)NC(=O)[C@H](CCCNC(=N)N)NC(=O)CSC[C@@H](C(=O)N[C@@H](CCN)C(=O)NCCCCCCCCCCC(=O)O)NC(=O)[C@H](CCO)NC(=O)[C@H](C(C)C)NC(=O)[C@H](CC3CCCCC3)NC(=O)[C@H](CCN)NC(=O)[C@@H](CC(C)C)NC(=O)[C@H](CCCN)NC(=O)[C@H](Cc3ccc(O)cc3)NC(=O)[C@H](Cc3ccc(-c4ccccc4)cc3)NC(=O)[C@H](Cc3ccc(OCC(=O)O)cc3)NC2=O)c1 [Compound 2095] ({CH2CO}-RY(Carboxymethyl)D[Phe(3-Me)]Y(Carboxymethyl)[Bip]Y[Orn][dL][Dab][Cha]V[hSer]C[Dab][Aun]-OH; thioether N-14)
